Measured values taken from patent US5830994A, “Peptide derivatives of alpha-MSH and their application” (Institut Europeen De Biologie Cellulaire, priority 1993, dated 1998).

Tests used:
[1] = test system: DNFB contact hypersensitivity; assay: Dinitrofluorobenzene (DNFB) contact hypersensitivity test, ear thickening after topical application; format: in vivo, C57 BL/6JICO mice; details: for % suppression relative to the control batch, LEFT EAR / % suppression relative to the control batch, RIGHT EAR / MEAN VALUES LEFT EAR % INCREASE / MEAN VALUES RIGHT EAR % INCREASE: 5 days
Source text: Study of the Anti-allergic activity of the Peptide compounds, by the Dinitrofluorobenzene (DNFB) contact Hypersensitivity test.
Female C57 BL/6JICO mice 5 weeks old are separated into ten batches of ten animals (five per cage), with free access to water and food, subjected to a photoperiod of twelve hours of light per twenty-four hours.
The animals in batches 1 to 6 receive daily and per topical application on the shaved skin of the back, the products to be studied, dissolved in propylene glycol, in a constant volume of 50 μl and for five consecutive days.
PIII--Batches 1 - 2 - 3--2.5 μg --0.5 μg--0.1 μg--mouse/day
PIV--Batches 4 - 5 - 6 - 2.5μg--0.5 μg--0.1 μg--mouse/day
The animals of the X batch serve as controls (and receive only, 50 μl of propylene glycol per topical application for five days).
On the fifth day, thirty minutes after the last application, all the mice are sensitized with 25 μl of DNFB (2.4-Dinitro-1-FluoroBenzene (FLUKA CHEMIKA PURUM at 97% batch No. 33820890) at 2% in a 4 to 1 mixture of acetone (SDS ref. 0510) and triolein (FLUKA) applied topically over the dorsal region of shaved skin.
On the sixth day, a new sensitization is carried out by application of DNFB.
On the eleventh day, the thickness of the ears of the mice is measured with the aid of a micrometer (ROCH 0 to 25 mm in 1/100 mm) in order to obtain base values, then the ears are stimulated by topical application of 20 μl of DNFB at 0.8%.
On the twelfth day, the thickness of the ears is again measured. The mean value of thickening of the ears is established for the mice in the batches which had received the products to be studied, as well as for the mice in the control batch.
The percentage of suppression where appropriate will be expressed by the following calculation: [formula]
Comparative study of the activity of Lipoyl-Peptides and of their peptide structures on DNFB contact hypersensitivity.
The method used is that described above in Example 10.
Contact hypersensitivity induced in mice by Dinitrofluorobenzene--"DNBF"
Batch I: (DL) - Lip - Glu - His - D.homoPhe - Arg - Trp - Gly - NH2
Batch II: H - Glu - His - D.homoPhe - Arg - Trp - Gly - NH2
Batch III: Control=(DL) - Lipoic Acid
Solvent: propylene Glycol previously used as control in Example 10.
Control: dose used"DL-Lipoic-Acid"=10 ng per mouse and per day.
On the fifth day, thirty minutes after the last application, all the mice were sensitized with 25 μl of DNFB (2.4-Dinitro-1-FluoroBenzene (FLUKA CHEMIKA PURUM at 97% batch No. 33820890) at 2% in a 4 to 1 mixture of acetone (SDS ref. 05510) and triolein (FLUKA) applied topically over the dorsal region of shaved skin.
On the twelfth day, the thickness of the ears is again measured. The mean value of thickening of the ears is established for the mice in the batches which had received the products to be studied, as well as for the mice in the control batch. The percentage of suppression where appropriate will be expressed by the following calculation: [formula]

[2] = test system: PGE2 production by MRC5 fibroblasts stimulated by IL1; assay: PGE2 production by fibroblasts stimulated by IL1 (RIA); format: cell-based, human; details: for % inhibition (PGE2) / PGE2: IL1:5 ng
Procedure: 2-1 Culture of embryonic pulmonary fibroplasts [sic] of human origin:
We chose to use the strain ATCC MRC5 maintained in the laboratory continuously and already tested by Cannon et al. (J. Immunol., 1986).
After subculturing, the fibroplasts [sic] are cultured in microwells (24-well plate of 2 cm2, Falcon). The innoculum is 30 000 cells per well; the nutrient medium used is composed of RPMI 1640 (90%) and of complement-free fetal calf serum (FCS, 10%). The medium is changed every two days until the cells become confluent.
The monocell layers thus obtained are washed and preincubated for 24 hours in fresh medium containing only 1% of FCS. […] After incubating for 20 minutes in the presence of these compounds, human recombinant IL1 (Tebu, France) at a concentration of 5, 2.5 or 0.5 ng/ml of medium is placed in contact with cells for 18 hours.
At the end of this incubation, the supernatants are collected and frozen at -80° C. until the analysis is carried out. The monocell layers are fixed with methanol.
The RIA assay is carried out according to the method described by Dray et al. (Europ. J. Invest. 1975). 3 series of experiments, in duplicate, were carried out for each concentration of product studied and for the controls. The results are expressed in pg/μg of DNA. The inhibitory effect is expressed in percentage relative to the controls.
In order to avoid any possible error due to the counting by optical microscopy, the DNA was assayed by a fluorimetric method according to the procedure described by Brunk et al. (Analytical Biochem., 1979).

For “[(DL) Lip] His - D.homoPhe - Arg - Trp - NH2 [PIV]”, the “% suppression relative to the control batch, LEFT EAR” value ([1]; 0.1 μg/mouse/day topical) was -65.46%, the “% suppression relative to the control batch, RIGHT EAR” value ([1]; 0.1 μg/mouse/day topical) was -65.46% and the “MEAN VALUES LEFT EAR % INCREASE” value ([1]; 0.1 μg/mouse/day topical) was 20.35%. For the same substance, the “MEAN VALUES RIGHT EAR % INCREASE” value ([1]; 0.1 μg/mouse/day topical) was 20.35%, the “% suppression relative to the control batch, LEFT EAR” value ([1]; 0.5 μg/mouse/day topical) was -69.40% and the “% suppression relative to the control batch, RIGHT EAR” value ([1]; 0.5 μg/mouse/day topical) was -69.40%. For the same substance, the “MEAN VALUES LEFT EAR % INCREASE” value ([1]; 0.5 μg/mouse/day topical) was 18.03%, the “MEAN VALUES RIGHT EAR % INCREASE” value ([1]; 0.5 μg/mouse/day topical) was 18.03% and the “% suppression relative to the control batch, LEFT EAR” value ([1]; 2.5 μg/mouse/day topical) was -69.47%. The “% suppression relative to the control batch, RIGHT EAR” value ([1]; 2.5 μg/mouse/day topical) was -69.47%, the “MEAN VALUES LEFT EAR % INCREASE” value ([1]; 2.5 μg/mouse/day topical) was 17.99% and the “MEAN VALUES RIGHT EAR % INCREASE” value ([1]; 2.5 μg/mouse/day topical) was 17.99%. The “suppression of the cutaneous hypersensitivity reaction induced by DiNitroFluoroBenzene” value ([1]; overall, Example 10 (2.5, 0.5, 0.1 μg/mouse/day)) was 68.11%, the “% inhibition (PGE2)” value ([2]; 10^-4 M) was 60% and the PGE2 ([2]; 10^-4 M) was 2964 ± 184 pg/mg of DNA. For the same substance, the “% inhibition (PGE2)” value ([2]; 10^-5 M) was 38%, the PGE2 ([2]; 10^-5 M) was 4580 ± 230 pg/mg of DNA and the “% inhibition (PGE2)” value ([2]; 10^-6 M) was 34%. For the same substance, the PGE2 ([2]; 10^-6 M) was 4900 ± 340 pg/mg of DNA, the “% inhibition (PGE2)” value ([2]; 10^-7 M) was 17% and the PGE2 ([2]; 10^-7 M) was 6150 ± 365 pg/mg of DNA. For the same substance, the “% inhibition (PGE2)” value ([2]; 10^-8 M) was 17%, the PGE2 ([2]; 10^-8 M) was 6142 ± 255 pg/mg of DNA and the “% inhibition (PGE2)” value ([2]; 10^-9 M) was 32%. The PGE2 ([2]; 10^-9 M) was 5047 ± 279 pg/mg of DNA and the “inhibitory action on IL1-stimulated PGE2 production (in words)” value ([2]; overall) was “possess an inhibitory power”.
